Laboratory results reported in patent EP1799816B1, “NOVEL LACCASE ENZYME AND USE THEREOF” (AB Enzymes Oy, priority 2004, dated 2006).
Read-outs that look alike come from different tables or passages of the source.

Assays:
[1] = biological target: T1, Melanocarpus albomyces laccase MaL (Melanocarpus albomyces, UniProt Q70KY3); experiment: Kinetic parameters (Km, kcat, kcat/Km) on laccase substrates; format: biochemical; conditions: substrate ABTS; 25 mM succinate buffer, pH 4.5, 25°C; comparison enzyme
T1 sequence (Q70KY3 51-609): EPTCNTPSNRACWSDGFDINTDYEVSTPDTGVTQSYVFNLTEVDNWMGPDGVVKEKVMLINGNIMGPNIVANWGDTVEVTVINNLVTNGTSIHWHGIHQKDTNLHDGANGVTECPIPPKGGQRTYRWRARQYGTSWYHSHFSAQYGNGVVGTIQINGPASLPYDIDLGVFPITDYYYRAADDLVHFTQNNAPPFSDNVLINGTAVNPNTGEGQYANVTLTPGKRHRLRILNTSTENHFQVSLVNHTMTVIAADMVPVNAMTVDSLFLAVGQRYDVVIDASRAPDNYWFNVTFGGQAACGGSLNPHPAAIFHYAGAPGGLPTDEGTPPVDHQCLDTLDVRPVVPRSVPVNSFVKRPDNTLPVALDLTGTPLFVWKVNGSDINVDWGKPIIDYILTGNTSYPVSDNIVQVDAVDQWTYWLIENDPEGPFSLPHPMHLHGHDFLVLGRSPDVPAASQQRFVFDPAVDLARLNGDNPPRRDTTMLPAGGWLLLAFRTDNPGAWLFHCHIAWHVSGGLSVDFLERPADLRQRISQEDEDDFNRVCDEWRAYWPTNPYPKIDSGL
Experimental: (§1) On syringaldazin and DMP 40 mM MES buffer, pH 6 and 25 mM succinate bluffer, All activity assays were carried out at 25°C. Kinetic parameters were estimated by a nonlinear regression curve fit. The values were compared to those of Melanocarpus albomyces MaL, laccase.

[2] = biological target: T2, recombinant Thielavia arenaria TaLcc1 laccase (rTaLcc1) expressed in Trichoderma reesei, SEQ ID NO: 12 (Canariomyces arenarius, UniProt F6N9E7); format: biochemical
T2 sequence (F6N9E7 22-604): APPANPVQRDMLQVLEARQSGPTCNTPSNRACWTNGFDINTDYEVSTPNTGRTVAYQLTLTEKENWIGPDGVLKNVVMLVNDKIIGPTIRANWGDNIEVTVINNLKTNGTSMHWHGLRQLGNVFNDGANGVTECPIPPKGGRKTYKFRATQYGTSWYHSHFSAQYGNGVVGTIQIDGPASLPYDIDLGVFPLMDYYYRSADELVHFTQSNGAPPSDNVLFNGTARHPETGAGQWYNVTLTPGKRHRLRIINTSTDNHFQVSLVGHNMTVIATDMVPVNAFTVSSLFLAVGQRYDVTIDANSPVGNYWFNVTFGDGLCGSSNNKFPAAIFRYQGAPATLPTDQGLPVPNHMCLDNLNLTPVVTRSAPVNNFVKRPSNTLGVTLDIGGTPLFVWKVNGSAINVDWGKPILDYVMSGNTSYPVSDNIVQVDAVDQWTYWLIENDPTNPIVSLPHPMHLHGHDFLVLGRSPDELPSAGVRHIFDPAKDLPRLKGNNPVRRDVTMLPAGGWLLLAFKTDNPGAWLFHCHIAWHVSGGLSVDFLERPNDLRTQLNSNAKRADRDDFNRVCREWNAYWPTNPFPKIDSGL
Experimental: as §1

## CCn1c(=NN=c2sc3cc(S(=O)(=O)O)ccc3n2CC)sc2cc(S(=O)(=O)O)ccc21 [ABTS, 2,2'azinobis-3-ethylbenzthiazole-6-sulphonate]
[1]
  Km: 270 µM
  kcat: 78.17 s⁻¹
[2]; substrate ABTS, 25 mM succinate buffer, pH 4.5, 25°C
  kcat: 68.83 s⁻¹

## COc1cc(C=NN=Cc2cc(OC)c(O)c(OC)c2)cc(OC)c1O [Syringaldazin, syringaldazine]
[2]; substrate Syringaldazin, 25°C, buffer unclear (40 mM MES buffer, pH 6 / 25 mM succinate buffer)
  kcat: 32.33 s⁻¹
